According to patent publication US20220233542A1, “COMPOSITIONS AND METHODS FOR PREVENTING OR TREATING HUMAN IMMUNODEFICIENCY VIRUS ASSOCIATED PULMONARY ARTERIAL HYPERTENSION” (University of Georgia Research Foundation, priority 2019, published 2022):
Where “and” joins values, the source holds several entries; their conditions need not be identical. Identical values can stand only once. Entries after “also recorded” stand apart in the source; their conditions may differ.

Assays:
[1] = tested on: SIV-infected rhesus macaques; assay: SIV-PAH model, hemodynamics by serial right heart catheterization; format: in vivo, Macaca mulatta; details: for Incidence PAH ≥ 25 mm Hg 6-12 mpi: number of animals of n = 14; for Prevalence of PAH (% PAH+): n = 14, untreated 52.2
Description: To determine the effect of statin treatment on PAH, SIV-infected rhesus macaques were studied. More specifically, a non-human primate (NHP) model of HIV-associated PAH that closely mimics HIV-PAH using simian immunodeficiency virus (SIV)-infected rhesus macaques (Macaca mulatta) was used. […] Moreover, the histologic and hemodynamic manifestations of SIV-PAH closely approximate those of human PAH.
Hemodynamics were measured by serial right heart catheterizations at baseline (BL), 6 months post-infection (6 mpi), and at the end of study (10-12 mpi) (FIG. 11C, 11D). In contrast to untreated controls (Untreated/SIV Group 1), 14.3% (Table 5, 2 of 14, P=0.03) of statin-treated animals (SIV/Statin Group 2) developed elevated mean pulmonary arterial pressure (mPAP) (monkey 3316 at 25.4 mm Hg and monkey 2416 at 46.3 mm Hg) at 6 mpi (FIG. 1). Of these animals, one maintained slightly elevated mPAP until the end of the study (monkey 3316, terminal mPAP=25.7). At study termination, mPAP of monkey 2416 decreased to 21.2 mm Hg.
It was further tested whether statin treatment initiated following SIV infection could modify PAH incidence or progression (FIG. 11A, SIV/Statin Group 3; Table 6). In this cohort, 1 of 14 monkeys (Table 2, 7.1%, P=0.0097) developed PAH (animal 2916; 6 mpi mPAP=45.5) at 6 mpi.
(§1) Animals. […] Study Design and Statin treatment. […] Hemodynamic measurements through right hearth catheterization. […] Flow Cytometry. […] Cytokine measurement in plasma and BALF. […] Whole slide images were acquired by Servicebio (Woburn, Mass.). […]

[2] = tested on: SIVΔB670; assay: Plasma viral load throughout SIV infection; format: in vivo, simian immunodeficiency virus (SIV)
Text: Therefore, peripheral blood CD4^+ T cell levels and plasma viral load throughout SIV infection were examined.
Animals. 28 adult Chinese rhesus macaques (Macaca mulatta) aged 6-10 years old were obtained from national primate centers or vendors and housed in accordance with the NIH Guide for the Care and Use of Laboratory Animals in a BSL2^+ primate facility at the University of Georgia (National Research Council Committee for the Update of the Guide for the Care and Use of Laboratory Animals, Guide for the Care and Use of Laboratory Animals (8th ed.) (National Academies Press National Academy of Sciences., 2011). Prior to admission to the study, all animals were screened and found negative for simian retroviruses and preexisting cardiovascular disease. Study Design and Statin treatment. All cohorts were infected with SIVΔB670 (1:100 in PBS), tissue culture infectious dose of 50% (TCID50)=2.6×10^5), intravenously or mucosally as previously described (Tarantelli et al. (2018); Schweitzer, F. et al. (2019)). […] All procedures were approved by the University of Georgia Institutional Animal Care and Use Committee. Hemodynamic measurements through right hearth catheterization. Right heart catheterization was performed and analyzed using a Swan-Ganz balloon wedge pressure catheter advanced through the right atrium, right ventricle, and pulmonary artery as previously described (Tarantelli et al). Flow Cytometry. Peripheral blood and bronchoalveolar lavage fluid (BALF) were collected at baseline (BL), 6 months post infection (mpi) and at study termination (10-12 mpi), and processed for flow cytometry as previously described (Board, K. F. et al. Experimental Pneumocystis carinii pneumonia in simian immunodeficiency virus-infected rhesus macaques. The Journal of infectious diseases 187, 576-588 (2003) and Kling, H. M. et al. Relationship of Pneumocystis jiroveci humoral immunity to prevention of colonization and chronic obstructive pulmonary disease in a primate model of HIV infection. Infection and immunity 78, 4320-4330 (2010)). CD14^dimCD16^+ non-classical monocytes and CCR7^−CD163^−CD206^+ BALF macrophages were identified by flow cytometry and calculated as previously described by Schweitzer, F. et al., supra). All analyses were performed using FlowJo Analysis software (Tree Star, Inc., Ashland, Oreg.). Cytokine measurement in plasma and BALF. Quantitative analysis of cytokines and chemokines in the plasma and BALF was performed using the Cytokine 29-Plex Monkey Panel (Invitrogen, Carlsbad, Calif.) according to the manufacturer's instructions. BALF analytes were normalized on the assumption that plasma and BALF have equal urea concentrations as previously described, using Quanti Chrom Urea Assay Kit (BioAssay Systems, Destin, Fla.) (Schweitzer, F. et al., supra). Histopathology and quantification of right ventricular and lung periarteriolar collagen deposition. 5 μm thick FFPE sections of the right heart and lung were cut and stained with Masson's trichrome and 0.1% Pico Sirius Red counterstained with Weigert's hematoxylin, to reveal fibrillar collagen, respectively by the UGA CVM Histopoathology Laboratory (Athens, Ga.). […] To quantify right ventricular collagen deposition in Masson's trichrome stained sections, 170 mm^2 regions were analyzed using Image J software (imagej.nih.gov/ij), with the threshold color plugin set to RGB; bright blue collagen was selected, converted to a binary image, and measured to quantify the collagen area. […]

[3] = tested on: TGF-β; assay: Cytokine measurement in BALF (Cytokine 29-Plex Monkey Panel); format: in vivo, Macaca mulatta; details: both statin-treated cohorts compared to PAH+ and PAH− SIV/Untreated controls
Description: To determine if statin treatment could modify these inflammatory mediators associated with SIV-PAH, cytokine profiles in the statin-treated cohorts were compared.
Animals. 28 adult Chinese rhesus macaques (Macaca mulatta) aged 6-10 years old were obtained from national primate centers or vendors and housed in accordance with the NIH Guide for the Care and Use of Laboratory Animals in a BSL2^+ primate facility at the University of Georgia (National Research Council Committee for the Update of the Guide for the Care and Use of Laboratory Animals, Guide for the Care and Use of Laboratory Animals (8th ed.) (National Academies Press National Academy of Sciences., 2011). Prior to admission to the study, all animals were screened and found negative for simian retroviruses and preexisting cardiovascular disease. Study Design and Statin treatment. All cohorts were infected with SIVΔB670 (1:100 in PBS), tissue culture infectious dose of 50% (TCID50)=2.6×10^5), intravenously or mucosally as previously described (Tarantelli et al. (2018); Schweitzer, F. et al. (2019)). […] All procedures were approved by the University of Georgia Institutional Animal Care and Use Committee. […] Quantitative analysis of cytokines and chemokines in the plasma and BALF was performed using the Cytokine 29-Plex Monkey Panel (Invitrogen, Carlsbad, Calif.) according to the manufacturer's instructions. […]

[4] = tested on: CD14dimCD16+ non-classical monocytes; assay: Flow cytometry of peripheral blood monocytes; format: in vivo, Macaca mulatta; details: both statin cohorts at 6 mpi compared to SIV-PAH+ controls
Text: (§2) Among cytokine signatures associated with the SIV-PAH, MIP-1α, TNF-α, and TGF-β have been previously associated with macrophage populations that promote fibrosis. At 6 mpi, SIV-PAH^+ animals had higher numbers of peripheral blood CD14^dimCD16^+ non-classical monocytes (FIG. 14A, p=0.06) and CCR7^−CD163^−CD206^+ BALF macrophages (FIG. 14C, p=0.04) compared to SIV-PAH^− controls. Moreover, increased numbers of CD14^dimCD16^+ non-classical monocytes (FIG. 14B, left panel, p=0.04) and CD14^+ CCR7^−CD163^−CD206^+ macrophages (FIG. 14D, left panel, p=0.03) correlate with increased pulmonary pressures in SIV/Uninfected controls at 6 mpi. Given the pleiotropic effects of statin upon monocyte and macrophage skewing and cytokine secretion, it was hypothesized that statins may decrease these populations which are associated with SIV-PAH.
as §1

[5] = tested on: CCR7−CD163−CD206+ BALF macrophages; assay: Flow cytometry of BALF macrophages; format: in vivo, Macaca mulatta; details: Groups 2 and 3 at 6 mpi compared to both PAH+ and PAH− SIV/Untreated controls
Text: as §2, §1

[6] = tested on: right ventricle collagen deposition; assay: Right ventricular collagen deposition (Masson's trichrome); format: in vivo, Macaca mulatta
Text: Moreover, increases in collagen deposition within the right ventricle (FIG. 15B, P=0.004; FIG. 15C) and small pulmonary arteries (FIG. 15D, P=0.0005) correlated with increased pulmonary pressures in SIV/Uninfected controls. Given the substantial dampening of pro-fibrotic immune phenotypes that occurs with statin treatment, right ventricular and lung periarteriolar collagen deposition were examined following statin treatment.
as §1

[7] = tested on: small pulmonary arteries collagen deposition; assay: Lung periarteriolar collagen deposition (Picro-Sirius Red); format: in vivo, Macaca mulatta
[8] = SIV/Statin Group 2, individual animals
[9] = SIV/Statin Group 3, individual animals
[10] = statin-treated cohorts compared with SIV-PAH− controls

CC(C)c1c(C(=O)Nc2ccccc2)c(-c2ccccc2)c(-c2ccc(F)cc2)n1CC[C@@H](O)C[C@@H](O)CC(=O)O [atorvastatin]
PAH Status [1, 8]: PAH− (PAH is defined as mPAP≥25 mm Hg); also recorded: PAH+ (PAH is defined as mPAP≥25 mm Hg)
Peak mPAP (mm Hg) [1, 8]: 15.2 mm Hg and 46.3 mm Hg and 23.2 mm Hg (2×) and 25.7 mm Hg and 19.2 mm Hg and 17.6 mm Hg and 20.2 mm Hg and 17.4 mm Hg and 16.6 mm Hg and 17.1 mm Hg and 22.0 mm Hg and 20.6 mm Hg and 20.7 mm Hg
Incidence PAH ≥ 25 mm Hg 6-12 mpi ([1]; SIV/Statin Group 2: atorvastatin 10 mg/day orally from 1 week prior to SIV infection): 2
Prevalence of PAH (% PAH+) ([1]; SIV/Statin Group 2: atorvastatin from 1 week prior to SIV infection): 14.3%
Prevalence of PAH (% PAH+) ([1]; SIV/Statin Group 2: atorvastatin from 1 week prior to SIV infection, listed as Statin): 14.3%
mPAP at 6 mpi of animals that developed elevated mPAP ([1]; SIV/Statin Group 2, monkey 3316 and monkey 2416): 25.4 mm Hg and 46.3 mm Hg
terminal mPAP of animals that developed elevated mPAP ([1]; SIV/Statin Group 2, monkey 3316 and monkey 2416, study termination): 25.7 mm Hg and 21.2 mm Hg
PAH Status [1, 9]: PAH− (PAH is defined as mPAP≥25 mm Hg); also recorded: PAH+ (PAH is defined as mPAP≥25 mm Hg)
Peak mPAP (mm Hg) [1, 9]: 21.4 mm Hg and 16.8 mm Hg and 13.2 mm Hg and 23.6 mm Hg and 45.5 mm Hg and 22.9 mm Hg and 24.1 mm Hg and 18.9 mm Hg and 20.2 mm Hg and 19.8 mm Hg and 24.4 mm Hg and 19.9 mm Hg
Incidence PAH ≥ 25 mm Hg 6-12 mpi ([1]; SIV/Statin Group 3: atorvastatin 10 mg/day orally from 4 months following SIV infection): 1
Prevalence of PAH (% PAH+) ([1]; SIV/Statin Group 3: atorvastatin from 4 months following SIV infection): 7.1%
Prevalence of PAH (% PAH+) ([1]; SIV/Statin Group 3: atorvastatin from 4 months following SIV infection, listed as Statin): 7.1%
6 mpi mPAP of the animal that developed PAH ([1]; SIV/Statin Group 3, animal 2916): 45.5
incidence of PAH ([1]; treatment initiated during the early chronic disease stage): reduced incidence of PAH compared to untreated animals
development of SIV-associated PAH ([1]; treatment of healthy macaques prior to and throughout SIV infection): prevented the development of SIV-associated PAH
Peak viral load (no. of RNA copies/mL) [2, 8]: 8.1 × 10^6 RNA copies/mL and 7.9 × 10^6 RNA copies/mL and 1.6 × 10^7 RNA copies/mL and 1.3 × 10^7 RNA copies/mL and 7.3 × 10^6 RNA copies/mL and 1.7 × 10^7 RNA copies/mL and 1.8 × 10^7 RNA copies/mL and 4.9 × 10^7 RNA copies/mL and 1.1 × 10^7 RNA copies/mL and 9.3 × 10^6 RNA copies/mL and 3.7 × 10^7 RNA copies/mL and 5.0 × 10^7 RNA copies/mL and 1.0 × 10^7 RNA copies/mL and 5.0 × 10^6 RNA copies/mL
Viral set point (no. of RNA copies/mL) [2, 8]: 3.0 × 10^4 RNA copies/mL and 6.1 × 10^3 RNA copies/mL and 1.8 × 10^6 RNA copies/mL and 1.7 × 10^6 RNA copies/mL (2×) and 9.9 × 10^5 RNA copies/mL and 2.7 × 10^5 RNA copies/mL and 1.3 × 10^4 RNA copies/mL and 8.8 × 10^4 RNA copies/mL and 3.5 × 10^5 RNA copies/mL and 4.6 × 10^4 RNA copies/mL and 2.9 × 10^6 RNA copies/mL and 1.4 × 10^5 RNA copies/mL and 1.2 × 10^5 RNA copies/mL
Peak viral load (no. of RNA copies/mL) ([2]; SIV/Statin Group 3 (treatment started 4 months following infection), individual animals): 2.4 × 10^7 RNA copies/mL and 1.6 × 10^7 RNA copies/mL and 1.2 × 10^7 RNA copies/mL and 4.7 × 10^7 RNA copies/mL and 4.3 × 10^7 RNA copies/mL and 2.2 × 10^7 RNA copies/mL and 1.0 × 10^6 RNA copies/mL and 8.4 × 10^5 RNA copies/mL and 8.3 × 10^6 RNA copies/mL and 7.3 × 10^6 RNA copies/mL and 9.6 × 10^6 RNA copies/mL and 8.8 × 10^6 RNA copies/mL and 2.9 × 10^7 RNA copies/mL and 5.8 × 10^6 RNA copies/mL
Viral set point (no. of RNA copies/mL) [2, 9]: 1.4 × 10^5 RNA copies/mL and 4.1 × 10^3 RNA copies/mL and 1.1 × 10^6 RNA copies/mL and 7.8 × 10^2 RNA copies/mL and 1.4 × 10^6 RNA copies/mL and 1.2 × 10^7 RNA copies/mL and 1.5 × 10^4 RNA copies/mL and 3.0 × 10^2 RNA copies/mL and 1.1 × 10^5 RNA copies/mL and 1.8 × 10^6 RNA copies/mL and 4.4 × 10^5 RNA copies/mL and 2.8 × 10^3 RNA copies/mL and 4.0 × 10^5 RNA copies/mL and 9.0 × 10^3 RNA copies/mL
viral load compared to SIV/Untreated controls ([2]; both statin-treated cohorts, throughout SIV infection): did not significantly alter; also recorded: does not significantly affect
levels of BALF TGF-β at 6 mpi [3]: significantly lower
number of CD14dimCD16+ non-classical monocytes [4]: significantly lower
number of CCR7−CD163−CD206+ BALF macrophages [5]: significantly reduced
right ventricle collagen deposition ([6]; both statin-treated cohorts compared to SIV-PAH+): significantly less collagen deposition
right ventricle collagen deposition [6, 10]: considerably less collagen deposition
small pulmonary arteries collagen deposition ([7]; statin-treated cohorts compared to SIV-PAH+): significantly less collagen deposition
lung collagen deposition [7, 10]: considerably less collagen deposition
